The values below are quoted from earlier work in US20250262166A1, “NANOPARTICLES COMPRISING ENZALUTAMIDE” (priority 2019, published 2025).

`CNC(=O)c1ccc(N2C(=S)N(c3ccc(C#N)c(C(F)(F)F)c3)C(=O)C2(C)C)cc1F` [Enzalutamide]: the solubility in water result was “insoluble in water”.
